pIC50: −log10 of the molar value. Read-outs that look alike come from different tables or passages of the source.
Experiments:
[1] = tested on: Escherichia coli expressing NDM-1 (CLB30005, CLB30016); type: cell-based; details: with imipenem 1 μg/ml; for Escherichia coli MITC95: NDM-1 strain, 95% inhibition of growth; for Escherichia coli expressing NDM-1 (CLB30016) MITC95: 95% inhibition of bacterial growth
Procedure, shortened: (§1)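 Clinical isolates (E. coli NDM-1, S. marcescens IMP-1, K. pneumoniae VIM-1) were diluted 1:100 from saline suspension into 1.1×CAMHB and exposed to test compound with imipenem at 1 μg/ml. Plates were incubated at 35° C for 22 hours to 24 hours, and growth was read by absorbance.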

[2] = tested on: Klebsiella pneumoniae expressing VIM-1 (IHMA599644); type: cell-based; details: for Klebsiella pneumoniae MITC95: VIM-1 strain IHMA599644, with imipenem 1 μg/ml, 95% inhibition of growth; for Klebsiella pneumoniae expressing VIM-1 (IHMA599644) MITC95: with imipenem 1 μg/ml, 95% inhibition of bacterial growth
Procedure, shortened: as §1

[3] = tested on: Serratia marcescens expressing IMP-1 (CL5741); type: cell-based; details: for Serratia marcescens MITC95: IMP-1 strain CL5741, with imipenem 1 μg/ml, 95% inhibition of growth; for Serratia marcescens expressing IMP-1 (CL5741) MITC95: with imipenem 1 μg/ml, 95% inhibition of bacterial growth
Procedure, shortened: as §1

[4] = tested on: Pseudomonas aeruginosa efflux+ (MB9798), IMP-1; type: cell-based; design: Concentration of metallo-β-lactamase inhibitor which restores susceptibility of efflux + (MB9798) strain to imipenem: unit not given here; details: C, D serine β-lactamase inhibitor closely related to relebactam; for P. aeruginosa expressing IMP-1, efflux + (MB9798) MITC95: concentration restoring susceptibility to imipenem at 2 μg/mL in the presence of a class A; for Concentration of metallo-β-lactamase inhibitor which restores susceptibility of efflux + (MB9798) strain to imipenem: imipenem at 2 μg/mL, in the presence of a class A
Procedure, shortened: (§2)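 P. aeruginosa PAO1-derived IMP-1 strains, efflux+ MB9798 and efflux− MB9799, tested by standard microbroth MIC with imipenem and/or ceftazidime fixed, usually at CLSI breakpoint, plus fixed class A/C β-lactamase inhibitor against AmpC. Inhibitor titrated; concentration restoring susceptibility recorded; MB9798/MB9799 fold difference indicates efflux.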

VIM-1 = VIM-1 (Pseudomonas aeruginosa (strain ATCC 15692 / DSM 22644 / CIP 104116 / JCM 14847 / LMG 12228 / 1C / PRS 101 / PAO1), UniProt A0A0F7KYQ8); assay: biochemical; details: CCF2-FA substrate, 30 pM enzyme, 2 hours at 25° C.
Procedure, shortened: (§3)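 Test compound, enzyme and the FRET cephalosporin substrate CCF2-FA are incubated together for 2 hours at 25° C. Cleavage is followed by fluorescence, and IC50 values are derived from semi-logarithmic inhibition curves fitted with a 4-parameter model.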

[5] = tested on: Pseudomonas aeruginosa MB9798 vs MB9799
Procedure, shortened: as §2

IMP-1 = IMP-1 (Serratia marcescens, UniProt P52699); assay: biochemical; type: biochemical; details: fluorescence assay, CCF2-FA substrate, 2 pM enzyme, 2 hours at 25° C.; read-out: IMP-1 IC50
IMP-1, sequence (P52699 whole entry, looked up, species assumed): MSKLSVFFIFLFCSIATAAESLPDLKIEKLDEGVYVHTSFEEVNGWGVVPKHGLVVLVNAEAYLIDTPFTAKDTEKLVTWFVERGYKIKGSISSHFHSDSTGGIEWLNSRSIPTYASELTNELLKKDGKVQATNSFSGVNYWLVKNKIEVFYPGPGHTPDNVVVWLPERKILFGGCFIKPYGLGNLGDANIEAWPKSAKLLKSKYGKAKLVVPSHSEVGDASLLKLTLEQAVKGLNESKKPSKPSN
Procedure, shortened: as §3

NDM-1 = NDM-1 (Klebsiella pneumoniae, UniProt C7C422); assay: biochemical; type: biochemical; details: fluorescence assay, CCF2-FA substrate, 1 pM enzyme, 2 hours at 25° C.; read-out: NDM-1 IC50
NDM-1, sequence (C7C422 whole entry, looked up, species assumed): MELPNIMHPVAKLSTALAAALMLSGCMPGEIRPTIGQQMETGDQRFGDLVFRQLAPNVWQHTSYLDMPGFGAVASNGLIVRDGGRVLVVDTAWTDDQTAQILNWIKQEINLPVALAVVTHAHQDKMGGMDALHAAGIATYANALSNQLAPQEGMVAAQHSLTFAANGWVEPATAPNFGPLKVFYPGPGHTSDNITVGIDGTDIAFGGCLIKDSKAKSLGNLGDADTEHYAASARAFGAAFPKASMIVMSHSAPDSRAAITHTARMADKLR
Procedure, shortened: as §3

[6] = tested on: Pseudomonas aeruginosa efflux− (MB9799), IMP-1; type: cell-based; details: C, D serine β-lactamase inhibitor closely related to relebactam; for P. aeruginosa expressing IMP-1, efflux − (MB9799) MITC95: concentration restoring susceptibility to imipenem at 2 μg/mL in the presence of a class A; for Concentration of metallo-β-lactamase inhibitor which restores susceptibility of efflux − (MB9799) strain to imipenem: imipenem at 2 μg/mL, in the presence of a class A
Procedure, shortened: as §2

[7] = ratio MITC95 PA_9798/MITC95 PA_9799
[8] = fluorescence assay, read-out: VIM-1 IC50
[9] = fold difference between efflux+ (MB9798) and efflux− (MB9799) strains, imipenem at 2 μg/mL

Compound | Escherichia coli MITC95 [1] [µM] | Klebsiella pneumoniae MITC95 [2] [µM] | Serratia marcescens MITC95 [3] [µM] | P. aeruginosa expressing IMP-1, efflux + (MB9798) MITC95 [4] [µM] | pIC50 (VIM-1; VIM-1 IC50, fluorescence assay) | Efflux ratio [5, 7] | pIC50 (IMP-1) | pIC50 (NDM-1) | P. aeruginosa expressing IMP-1, efflux − (MB9799) MITC95 [6] [µM] | Escherichia coli expressing NDM-1 (CLB30016) MITC95 [1] [µM] | Klebsiella pneumoniae expressing VIM-1 (IHMA599644) MITC95 [2] [µM] | Serratia marcescens expressing IMP-1 (CL5741) MITC95 [3] [µM] | pIC50 (VIM-1; [8]) | Concentration of metallo-β-lactamase inhibitor which restores susceptibility of efflux + (MB9798) strain to imipenem [4] | Efflux ratio [5, 9] | Concentration of metallo-β-lactamase inhibitor which restores susceptibility of efflux − (MB9799) strain to imipenem [6]
NC[C@H](O)CNS(=O)(=O)c1ccc(-c2ccc(N)nc2)c(-c2nn[nH]n2)c1S(N)(=O)=O [Example 309, (S)-N1-(3-amino-2-hydroxypropyl)-4-(6-aminopyridin-3-yl)-3-(2H-tetrazol-5-yl)benzene-1,2-disulfonamide] | 0.2279 | 1.563 | 0.5208 | 0.7813 | 9.70 | 1.00 | 9.30 | 9.70 | 0.7813 |  |  |  |  |  |  | 
CNCCNS(=O)(=O)c1ccc(-c2cccc3sc(N)nc23)c(-c2nnn[nH]2)c1S(N)(=O)=O [Example 31, 4-(2-amino-1,3-benzothiazol-4-yl)-N^1-[2-(methylamino)ethyl]-3-(1H-tetrazol-5-yl)benzene-1,2-disulfonamide] |  |  |  | 2.344 |  | 1.50 | 8.69 | 8.59 | 1.563 | 9.375 | 6.25 | 2.344 | 8.09 |  |  | 
NC[C@@H](CO)NS(=O)(=O)c1ccc(-c2cccc3sc(N)nc23)c(-c2nnn[nH]2)c1S(N)(=O)=O [Example 201, (S)—N^1-(1-amino-3-hydroxypropan-2-yl)-4-(2-aminobenzo[d]thiazol-4-yl)-3-(1H-tetrazol-5-yl)benzene-1,2-disulfonamide] |  |  |  | 0.7813 | 9.90 | 0.50 | 9.96 | 10.70 | 1.563 | 1.563 | 3.125 | 1.563 |  |  |  | 
NCCNS(=O)(=O)c1ccc(-c2cccc(NC(=O)[C@@H](N)CN)c2)c(-c2nn[nH]n2)c1S(N)(=O)=O [Example 453, (S)-2,3-Diamino-N-(4′-(N-(2-aminoethyl)sulfamoyl)-3′-sulfamoyl-2′-(2H-tetrazol-5-yl)-[1,1′-biphenyl]-3-yl)propanamide] | 1.563 | 3.125 | 3.125 |  |  |  | 8.45 | 9.06 |  |  |  |  | 9.61 | 3.125 | 2.00 | 1.563
NC[C@H](CO)NS(=O)(=O)c1ccc(-c2cccc3[nH]nnc23)c(-c2nn[nH]n2)c1S(N)(=O)=O [Example 407] | 0.7813 | 3.125 | 1.563 |  | 9.47 |  | 8.87 | 9.85 |  |  |  |  |  | 3.125 | 2.00 | 1.563
NCCNS(=O)(=O)c1ccc(-c2cccc3[nH]c(CN)nc23)c(-c2nn[nH]n2)c1S(N)(=O)=O [Example 343] | 0.7813 | 0.7813 | 0.7813 | 0.7813 |  | 1.00 | 8.86 | 9.71 | 0.7813 |  |  |  | 9.68 |  |  | 
Nc1nc2c(-c3ccc(S(=O)(=O)NC[C@@]4(N)CCNC4)c(S(N)(=O)=O)c3-c3nn[nH]n3)cccc2[nH]1 [Example 251, (R)-4-(2-amino-1H-benzo[d]imidazol-4-yl)-N1-((3-aminopyrrolidin-3-yl)methyl)-3-(2H-tetrazol-5-yl)benzene-1,2-disulfonamide] | 0.7813 | 1.563 | 0.7813 | 0.7813 |  | 1.00 | 9.12 | 10.25 | 0.7813 |  |  |  | 9.71 |  |  | 
CN1CC[C@H](CNS(=O)(=O)c2ccc(-c3cccc4sc(N)nc34)c(-c3nnn[nH]3)c2S(N)(=O)=O)C1 [Example 77, 4-(2-amino-1,3-benzothiazol-4-yl)-N1-{[(3S)-1-methylpyrrolidin-3-yl]methyl}-3-(1H-tetrazol-5-yl)benzene-1,2-disulfonamide] |  |  |  | 0.7813 | 9.88 | 0.50 | 9.78 | 10.47 | 1.563 | 3.125 | 6.25 | 1.563 |  |  |  | 
C[C@H](CN)NS(=O)(=O)c1ccc(-c2cccn3ccnc23)c(-c2nn[nH]n2)c1S(N)(=O)=O [Example 384, (R)—N1-(1-aminopropan-2-yl)-4-(imidazo[1,2-a]pyridin-8-yl)-3-(2H -tetrazol-5-yl) benzene-1,2-disulfonamide] | 1.563 | 3.125 | 3.125 | 0.7813 |  | 0.50 | 10.27 | 10.63 | 1.563 |  |  |  | 10.27 |  |  | 
Nc1nc2c(-c3ccc(S(=O)(=O)NCC4CNCCO4)c(S(N)(=O)=O)c3-c3nnn[nH]3)cccc2s1.O=C(O)C(F)(F)F (stereo not drawn) [Example 112, 2-((4-(2-aminobenzo[d]thiazol-4-yl)-2-sulfamoyl-3-(1H-tetrazol-5-yl)phenylsulfonamido)methyl)morpholin-4-ium 2,2,2-trifluoroacetate] |  |  |  | 1.563 | 9.66 | 1.00 | 9.50 | 10.34 | 1.563 | 1.563 | 3.125 | 1.563 |  |  |  | 

From patent publication US10221163B2 (priority 2015, dated 2019)
